Patent publication US20250382588A1, “CHIMERIC AAV AND USES THEREOF” (priority 2023, published 2025)

Legend:
[1] = system: retrogradely labeled D1-MSNs; experiment: Striatal slice whole-cell recordings of retrogradely labeled MSNs; format: cell-based, mice; conditions: AAV8R12-G88P3-HA-hM3Dq-2A-EYFP; CNO 10 μM
Description: Mice from different groups were anesthetized with […] isoflurane, and then decapitated. The brain was quickly extracted and placed in ice-cold N-methyl-D-glucamine (NMDG) cutting solution containing (in mM): 92 NMDG, 2.5 KCl, 25 NaHCO3, 1.25 NaH2PO4, 4.5 D-Glucose, 20 HEPES, 5 L-ascorbic acid, 3 Na-pyruvate, 2 Thiourea, 10 MgSO4, 0.5 CaCl2). The pH was adjusted to 7.2±0.1 using HCl and the osmolarity was adjusted to 305±5 mosmol/L using NMDG. The solution was bubbled with 95% O2/5% CO2 prior to use. Coronal striatum slices were cut in 250-[…] thickness with a vibratome slicer (Leica, VT1200 S), and then incubated in artificial cerebrospinal fluid (aCSF) saturated with 95% O2/5% CO2 for at least 45 min at 37° C. before recording. The aCSF contains (in mM) 125 NaCl, 1.25 KCl, 25 NaHCO3, 1.25 KH2PO4, 25 D-Glucose, 2 CaCl2) and 1 MgCl2, supplemented with 2 mM Na-pyruvate, 3 mM Myo-inositol and 0.4 mM L-ascorbic acid.
The acute striatum slice was transferred to the recording chamber with a constant perfusion of oxygenized aCSF at the rate of 3 ml/min. Neurons were visualized using an upright microscope (Olympus, BX-51) with a 40× water immersion objective at room temperature (˜25° C.). […] Neurons were quickly visualized under fluorescence microscope and then patch clamp were achieved under infrared light illumination and CCD camera. […]

hM3Dq = molecular target: T1, hM3Dq (Homo sapiens, UniProt P20309, A239G/Y149C); experiment: Electrophysiological recording in caudate after CNO infusion, AAV8R12-G88P3-HA-hM3Dq macaques; format: in vivo
T1 construct: HA (N); expressed in transfected cells; host or cells: neurons (striatal D1-MSNs, some SNr neurons) of C57BL/6J mice or cynomolgus macaques transduced by nigral AAV8R12-G88P3-HA-hM3Dq
Experimental: (§1) Electrophysiological recording was performed through a recording chamber while the monkey was anesthetized. Neural responses were recorded by a 16-channel linear probe (Plexon Inc, Uprobe) driven by a mechanical microdrive (Alpha Omega, FlexMT). Signals were passed through a head stage (Plexon Inc, HST/16V-G20 LN) and then split and filtered between 300 Hz and 5 kHz to identify spiking activity with an amplifier system (Plexon Inc, OmniPlex). Detected spikes were then sorted by commercially available software (Plexon Inc, Offline Sorter) for further analysis. To quantify the effect of CNO/DCZ injection, neural activity was recorded for 60 minutes following CNO/DCZ injection. The response time-course for each channel was obtained by counting the spikes within every 10-minute window and then normalizing to the maximal.
(§2) To determine the effect of CNO/DCZ injection on the direction of signal change, we performed Pearson correlation between neural responses and time using the ‘corr’ function in Matlab, which generates the correlation coefficient ‘r’ and significant level ‘p’. A neuron was considered to have “Increased” activity when r>0 and p<[…]; and considered to have “Decreased” activity when r<0 and p<0.05. Otherwise, neurons were considered to be “Unchanged” in their neural activities. The responses of all increased neurons were then averaged after being normalized by the maximal response (Crowe et al., 2014; Dai and Wang, 2018; Hirokawa et al., 2019) following CNO/DCZ injection, and then plotted as a function of time to generate the normalized population response.

rM3Ds = molecular target: T2, rM3Ds (Rattus norvegicus, UniProt P08483, A177S/A238G/A489L/DEL261-437/DEL441-478/E258S/I253V/I483M/INS256[…]/K178L/K182A/K255R/K484R/K486H/L173F/L482A/M480V/R171S/R176Q/R179M/S481M/T174R/T181R/T257A/Y148C); experiment: Electrophysiological recording in caudate/putamen of MPP+ lesioned macaques after CNO or DCZ; format: in vivo
T2 sequence (P08483 with tags, fused parts or gaps Y148C/R171S/L173F/T174R/R176Q/A177S/K178L/R179M/T181R/K182A/A238G/I253V/K255R/INS256[…]/T257A/E258S/DEL261-437/DEL441-478/M480V/S481M/L482A/I483M/K484R/K486H/A489L): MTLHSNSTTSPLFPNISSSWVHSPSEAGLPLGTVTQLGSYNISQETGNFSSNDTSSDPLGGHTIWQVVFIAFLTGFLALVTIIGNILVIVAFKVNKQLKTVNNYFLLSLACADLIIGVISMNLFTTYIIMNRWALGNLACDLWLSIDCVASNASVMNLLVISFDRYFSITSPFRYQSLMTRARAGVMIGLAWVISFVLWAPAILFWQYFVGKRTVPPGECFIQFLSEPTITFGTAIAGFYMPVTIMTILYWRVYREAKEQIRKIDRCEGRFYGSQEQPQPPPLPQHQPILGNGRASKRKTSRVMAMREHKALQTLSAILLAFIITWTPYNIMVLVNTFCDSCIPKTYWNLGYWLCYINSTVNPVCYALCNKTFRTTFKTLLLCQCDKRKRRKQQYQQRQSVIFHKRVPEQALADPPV
Experimental: Intriguingly, many of the symptoms were greatly reversed after systemic deschloroclozapine (DCZ) administration. DCZ is a potent brain-penetrable agonist for rM3Ds with reduced off-targeting binding compared to CNO, and was administered to activate the DREADD system in the macaque brain.
as §1, §2

[2] = monkey CM045, 34 cells in caudate
[3] = caudate/putamen, CNO 36 cells, DCZ 31 cells

T1 sequence (P20309 whole entry Y149C/A239G, the tested form may be a part): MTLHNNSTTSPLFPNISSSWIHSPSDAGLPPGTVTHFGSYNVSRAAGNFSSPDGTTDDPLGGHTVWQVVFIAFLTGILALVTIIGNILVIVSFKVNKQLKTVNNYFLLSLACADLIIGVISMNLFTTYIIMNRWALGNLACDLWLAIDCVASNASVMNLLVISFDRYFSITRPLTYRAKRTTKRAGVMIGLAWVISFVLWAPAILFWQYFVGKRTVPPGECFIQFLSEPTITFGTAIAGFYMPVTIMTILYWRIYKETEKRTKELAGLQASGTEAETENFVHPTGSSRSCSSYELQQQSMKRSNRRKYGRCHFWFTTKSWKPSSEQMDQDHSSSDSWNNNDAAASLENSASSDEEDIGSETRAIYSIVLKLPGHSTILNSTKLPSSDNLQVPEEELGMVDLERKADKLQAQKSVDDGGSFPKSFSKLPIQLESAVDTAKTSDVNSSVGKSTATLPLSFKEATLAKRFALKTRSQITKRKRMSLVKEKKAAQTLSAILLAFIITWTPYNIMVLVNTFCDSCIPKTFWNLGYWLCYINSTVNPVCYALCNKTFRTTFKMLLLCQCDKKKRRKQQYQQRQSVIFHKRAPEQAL

## C[N+]1([O-])CCN(C2=Nc3cc(Cl)ccc3Nc3ccccc32)CC1 [CNO, clozapine N-oxide]
[1]
  excitability of transduced MSNs: augmentation of excitability
hM3Dq; 34 total cells in the caudate
  cells activated (FIG. 12L): 67.6%
  cells inactivated (FIG. 12L): 2.9%
  cells unchanged (FIG. 12L): 29.4%
hM3Dq; [2]
  cells activated (FIG. 12C): 70.6%
  cells inactivated (FIG. 12C): 8.8%
  cells unchanged (FIG. 12C): 20.6%
rM3Ds; anesthetized animals
  neuronal activity in MPP+ lesioned macaques, in words: induced an increase in neuronal activity
rM3Ds; [3]
  cells activated (FIG. 15G): 52.8%
  cells inactivated (FIG. 15G): 13.9%
  cells unchanged (FIG. 15G): 33.3%
